Assay: HPLC chromatograms of samples comprising vitamin C (degradation products)
Format: physicochemical
Details: after 1 hour at ambient conditions without chemical stabilization
Protocol: FIGS. 36A and 36B show two HPLC chromatograms from samples comprising vitamin C. […] No degradation products were visible. FIG. 59 is a table summarizing the vitamin C concentration in silk protein fragment-films (2% silk films air dried at RT) of the present disclosure. In FIG. 59 processing conditions included 100° C. extraction for 20 min, RT rinse, LiBr in 60° C. oven for 4-6 hours. FIG. 60 is arable summarizing the stability of vitamin C in chemically stabilized solutions. FIGS. 89A-89B are tables summarizing vitamin C stability in SPF gels without chemical stabilizers as compared to chemically stabilized vitamin C in competitive anti-aging skincare products. […] Without wishing to be bound by theory, it appears there is a relationship between vitamin C concentration, silk concentration, and gelation. An increase in vitamin C at a given concentration of silk will result in a longer time to gelation or inhibit gelation. This may be due to the vitamin C molecule physically blocking interaction between silk protein fragments or cross-linking of silk protein.

With `O=C1O[C@H]([C@@H](O)CO)C(O)=C1O` [vitamin C, L-ascorbic acid] the “degradation products of vitamin C” value was “degradation products are visible”.

Reference: US11857663B2, “Stable silk protein fragment compositions” (Evolved By Nature, Inc., priority 2013, dated 2024)
